# Assay results from US9788539B2, “Platelet protection solution having beta-galactosidase and sialidase inhibitors” (Velico Medical, Inc., priority 2011, dated 2017).
# Entries after “also recorded” stand apart in the source; their conditions may differ.
# How the values were obtained:
# mouse platelets [1] = test: Surface receptor loss of mouse platelets stored at room temperature; type: cell-based; details: mouse platelets stored at room temperature for 6 h, with fetuin (30-60% loss without)
# mouse platelets [2] = test: β-galactose exposure by FITC RCA-1 lectin binding with fetuin as competitive sialidase substrate; type: cell-based; details: fetuin 1 mg/mL
# mouse platelets [3] = test: Sialidase (neuraminidase)-induced loss of platelet surface receptors, flow cytometry and immunoblot; type: cell-based
# [4] = test system: platelet GPIbα and GPV receptor surface expression; test: Recombinant TACE-mediated GPIbα and GPV shedding from platelets; type: cell-based, mouse
# mouse platelets [5] = test: Sialidase-induced β-galactose exposure on platelets, lectin binding by flow cytometry; type: cell-based
# mouse platelets [6] = test: Survival of mouse platelets stored 20 hrs at RT in pPAS with or without DGJ after transfusion; type: in vivo; details: 2 mM DGJ in pPAS, 30% plasma 70% pPAS, 20-hr storage at RT, vs pPAS alone
# Procedure: Materials and Methods: Blood was obtained from anesthetized 8 weeks old C57/Bl6 mice by retroorbital bleeding. Platelets and platelet poor plasma (PPP) were prepared by differential centrifugation as described. Isolated platelets were labeled with 2.5 μM of CMFDA for 15 min. Following staining, platelets were pelleted and resuspended in 500 μl of plasma, or in a mixture of 30% plasma and 70% pPAS (i.e., PPS9 formulation in Tables 1 and 3 without the 2 mM of DGJ shown in the tables) or pPAS+DGJ (2 mM) (PPS9 formulation in Tables 1 and 3). Platelets were stored for 20 hrs at room temperature and transfused into 8 weeks old syngeneic mice. Non-stored fresh platelets in plasma were used as control. Platelet survivals were determined by intravenous injections CMFDA-labeled mouse platelets, respectively. Blood was collected by retroorbital bleeding at 5 min, 2, 24, 48 and 72 hrs. The percentages of CMFDA-positive platelets were determined by flow cytometry.
# THP-1 cells = test: Ingestion of β-galactosidase treated platelets by THP-1 cells; type: cell-based; details: fresh human platelets treated with β-galactosidase
# Procedure: FIG. 44 is a bar graph showing that […] cells ingestion of human platelets correlates with decrease in β-galactose exposure. Isolated human platelets were labeled with CM-Orange, added to THP-1 cells and incubated for 30 min at 37° C. Ingestion of fluorescently labeled control fresh room temperature platelets and platelets treated by β-galactosidase was detected using flow cytometry, as an increase in […] associated orange fluorescence.
# We treated fresh isolated platelets from healthy volunteers with β-galactosidase, which cleaves terminal β-galactose from platelet surfaces.
compound,measurement,setting,value
"fetuin: neuraminidase (NA) substrate, competitive sialidase substrate",loss of GPIb and GPV,mouse platelets [1],10-20%
same,RCA-1 binding to fresh platelets,mouse platelets [2]; fresh platelets at room temperature,no effect
same,"sialic acid hydrolysis (β-galactose exposure, RCA-1 binding) during platelet storage","mouse platelets [2]; mouse platelet rich plasma, refrigeration 48 h",inhibits the hydrolysis of sialic acid from platelet glycans; also recorded: greatly inhibits sialic acid hydrolysis
same,"loss (shedding) of platelet GPIbα and GPV induced by sialidase/neuraminidase, in presence of inhibitor",mouse platelets [3],completely prevented this loss
CNC(=O)[C@H](Cc1c[nH]c2ccccc12)NC(=O)[C@@H](CC(=O)NO)CC(C)C [GM6001],receptor shedding by rTACE in presence of inhibitor,[4],inhibited receptor shedding
same,β-galactose exposure induced by sialidase in presence of inhibitor,mouse platelets [5],did not prevent β-galactose exposure
"OC[C@H]1NC[C@H](O)[C@@H](O)[C@H]1O [DGJ, 1-deoxygalactonojirimycin]",survival of the transfused platelets,mouse platelets [6],significantly improved the survival of the transfused platelets
β-galactosidase,ingestion of platelets by THP-1 cells compared to control platelets,THP-1 cells,4 fold
rTACE: recombinant TACE (ADAM17) metalloprotease,GPIbα released from platelets,[4]; platelets treated with rTACE,47%±6
same,GPV released from platelets,[4]; platelets treated with rTACE,18%±12
same,GPIX and αIIbβ3 released from platelets,"[4]; platelets treated with rTACE, not shown",negligible amounts
